Test results reported in patent publication US11787796B2, “Plasma Kallikrein inhibitors and uses thereof” (Takeda Pharmaceutical Company Limited, priority 2019, dated 2023).

The compounds below were run against human activated kallikrein enzyme (Homo sapiens (Human), UniProt P03952) (assay: Plasma kallikrein inhibition assay with fluorogenic peptide substrate, 500 pM activated kallikrein format). Conditions: 500 pM activated kallikrein; 300 uM Pro-Phe-Arg-7-amido-4-methylcoumarin substrate; 30 min preincubation, 10 min reaction at RT; read-out: Primary Dose Response Assay: Average EC50.
Sequence of human activated kallikrein enzyme (P03952 391-638): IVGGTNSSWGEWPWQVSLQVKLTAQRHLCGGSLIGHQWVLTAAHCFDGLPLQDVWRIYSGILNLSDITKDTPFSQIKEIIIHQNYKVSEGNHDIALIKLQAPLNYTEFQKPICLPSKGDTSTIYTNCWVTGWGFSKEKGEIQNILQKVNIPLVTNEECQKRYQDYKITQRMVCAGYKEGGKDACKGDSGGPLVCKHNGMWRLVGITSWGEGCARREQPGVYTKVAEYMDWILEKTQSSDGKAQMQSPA
Sequence of human activated kallikrein enzyme (P03952 20-390 partner): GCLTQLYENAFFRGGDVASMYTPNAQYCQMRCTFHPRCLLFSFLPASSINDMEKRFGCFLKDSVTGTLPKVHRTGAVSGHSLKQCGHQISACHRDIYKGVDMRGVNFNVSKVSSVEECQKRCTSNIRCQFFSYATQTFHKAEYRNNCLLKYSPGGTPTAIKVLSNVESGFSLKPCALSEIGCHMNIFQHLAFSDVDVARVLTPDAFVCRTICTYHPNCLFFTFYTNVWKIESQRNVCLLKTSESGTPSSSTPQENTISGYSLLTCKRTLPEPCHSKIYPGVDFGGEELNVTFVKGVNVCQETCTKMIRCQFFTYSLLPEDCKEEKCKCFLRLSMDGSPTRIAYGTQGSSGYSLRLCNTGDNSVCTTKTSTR
Type: biochemical
Summary of the method: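 Pro-Phe-Arg-7-amido-4-methylcoumarin substrate (300 uM) started reactions after a 30 min RT enzyme–inhibitor preincubation. This format used 500 pM activated human kallikrein in Tris pH 7.5 buffer with EDTA, NaCl, PEG-400 and Triton X-100. AMC fluorescence (380/460 nm) was measured after 10 min at RT.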

EC50 [nM] | Structure (SMILES)
100 to 2000 | COc1cccc(CNC(=O)c2cn(Cc3cn4cc(C5CC5)ccc4n3)nn2)c1F [Example I-100, 1-((6-cyclopropylimidazo[1,2-a]pyridin-2-yl)methyl)-N-(2-fluoro-3-methoxybenzyl)-1H-1,2,3-triazole-4-carboxamide]
1 to 10 | COc1ccc(-c2ccncc2)c(CNC(=O)c2cn(Cc3cn4cc(C5CC5)ccc4n3)nn2)c1F [Example I-101, 1-((6-cyclopropylimidazo[1,2-a]pyridin-2-yl)methyl)-N-(2-fluoro-3-methoxy-6-(pyridin-4-yl)benzyl)-1H-1,2,3-triazole-4-carboxamide]
10 to 100 | COc1ccc(Br)c(CNC(=O)c2cn(Cc3cn4cc(C5CC5)ccc4n3)nn2)c1F [Example I-102, N-(6-bromo-2-fluoro-3-methoxybenzyl)-1-((6-cyclopropylimidazo[1,2-a]pyridin-2-yl)methyl)-1H-1,2,3-triazole-4-carboxamide]
≤ 1 | Cc1cc(C(=N)N)cc(C)c1CNC(=O)c1cnn(Cc2cn3cc(C4CC4)ccc3n2)c1 [Example I-103, N-(4-carbamimidoyl-2,6-dimethylbenzyl)-1-((6-cyclopropylimidazo[1,2-a]pyridin-2-yl)methyl)-1H-pyrazole-4-carboxamide]
1 to 10 | COc1ccc(-n2ccnc2)c(CNC(=O)c2cn(Cc3cn4cc(C5CC5)ccc4n3)nn2)c1F [Example I-104, 1-((6-cyclopropylimidazo[1,2-a]pyridin-2-yl)methyl)-N-(2-fluoro-6-(1H-imidazol-1-yl)-3-methoxybenzyl)-1H-1,2,3-triazole-4-carboxamide]
≤ 1 | COc1ccc(-n2cnnn2)c(CNC(=O)c2cn(Cc3cn4cc(C5CC5)ccc4n3)nn2)c1F [Example I-105, 1-((6-cyclopropylimidazo[1,2-a]pyridin-2-yl)methyl)-N-(2-fluoro-3-methoxy-6-(1H-tetrazol-1-yl)benzyl)-1H-1,2,3-triazole-4-carboxamide]
≤ 1 | O=C(NCc1c(-n2cnnn2)ccc(Cl)c1F)c1cn(Cc2cn3cc(C4CC4)ccc3n2)nn1 [Example I-106, N-(3-chloro-2-fluoro-6-(1H-tetrazol-1-yl)benzyl)-1-((6-cyclopropylimidazo[1,2-a]pyridin-2-yl)methyl)-1H-1,2,3-triazole-4-carboxamide]
≤ 1 | COc1ccc(C#N)c(CNC(=O)c2cn(Cc3cn4cc(C5CC5)cc(CCC(=O)O)c4n3)nn2)c1F [Example I-107, 3-(2-((4-((6-cyano-2-fluor-3-methoxybenzyl)carbamoyl)-1H-1,2,3-triazol-1-yl)methyl)-6-cyclopropylimidazo[1,2-a]pyridin-8-yl)propanoic Acid]
1 to 10 | CCOC(=O)CCc1cc(C2CC2)cn2cc(Cn3cc(C(=O)NCc4c(C#N)ccc(OC)c4F)nn3)nc12 [Example I-108, ethyl 3-(2-((4-((6-cyano-2-fluoro-3-methoxybenzyl)carbamoyl)-1H-1,2,3-triazol-1-yl)methyl)-6-cyclopropylimidazo[1,2-a]pyridin-8-yl)propanoate]
≤ 1 | O=C(O)CCc1cc(C2CC2)cn2cc(Cn3cc(C(=O)NCc4c(-n5cnnn5)ccc(Cl)c4F)nn3)nc12 [Example I-109, 3-(2-((4-((3-choro-2-fluoro-6-(1H-tetrazol-1-yl)benzyl)carbamoyl)-1H-1,2,3-triazol-1-yl)methyl)-6-cyclopropylimidazo[1,2-a]pyridin-8-yl)propanoic Acid]
1 to 10 | N#CNc1ccc(Cl)c(F)c1CNC(=O)c1cn(Cc2cn3cc(C4CC4)cc(CCC(=O)O)c3n2)nn1 [Example I-110, 3-(2-((4-((3-chloro-6-cyanamido-2-fluorobenzyl)carbamoyl)-1H-1,2,3-triazol-1-yl)methyl)-6-cyclopropylimidazo[1,2-a]pyridin-8-yl)propanoic Acid]
≤ 1 | Cc1cc(C(=N)N)cc(C)c1CNC(=O)c1cn(Cc2cn3cc(C4CC4)cc(C(=O)O)c3n2)nn1 [Example I-111, 2-((4-((4-carbamimidoyl-2,6-dimethylbenzyl)carbamoyl)-1H-1,2,3-triazol-1-yl)methyl)-6-cyclopropylimidazo[1,2-a]pyridine-8-carboxylic Acid]
≤ 1 | CCOC(=O)c1cc(C2CC2)cn2cc(Cn3cc(C(=O)NCc4c(C)cc(C(=N)N)cc4C)nn3)nc12 [Example I-112, ethyl 2-((4-((4-carbamimidoyl-2,6-dimethylbenzyl)carbamoyl)-1H-1,2,3-triazol-1-yl)methyl)-6-cyclopropylimidazo[1,2-a]pyridine-8-carboxylate]
≤ 1 | CCOC(=O)CCc1cc(C2CC2)cn2cc(Cn3cc(C(=O)NCc4c(-n5cnnn5)ccc(Cl)c4F)nn3)nc12 [Example I-113, ethyl 3-(2-((4-((3-chloro-2-fluoro-6-(1H-tetrazol-1-yl)benzyl)carbamoyl)-1H-1,2,3-triazol-1-yl)methyl)-6-cyclopropylimidazo[1,2-a]pyridin-8-yl)propanoate]
100 to 2000 | O=C(NCc1c(N2CC3(COC3)C2)ccc(Cl)c1F)c1cnn(Cc2cn3cc(C4CC4)ccc3n2)c1 [Example I-114, N-(3-chloro-2-fluoro-6-(2-oxa-6-azaspiro[3.3]heptan-6-yl)benzyl)-1-((6-cyclopropylimidazo[1,2-a]pyridin-2-yl)methyl)-1H-pyrazole-4-carboxamide]
≤ 1 | Cc1cc(C(=N)N)cc(C)c1CNC(=O)c1cn(Cc2cn3cc(C4CC4)ccc3n2)nn1 [Example I-115, N-(4-carbamimidoyl-2,6-dimethylbenzyl)-1-((6-cyclopropylimidazo[1,2-a]pyridin-2-yl)methyl)-1H-1,2,3-triazole-4-carboxamide]
≤ 1 | O=C(NCc1c(-n2cnnn2)ccc(Cl)c1F)c1cnn(Cc2cn3cc(C4CC4)ccc3n2)c1 [Example I-116, N-(3-chloro-2-fluoro-6-(1H-tetrazol-1-yl)benzyl)-1-((6-cyclopropylimidazo[1,2-a]pyridin-2-yl)methyl)-1H-pyrazole-4-carboxamide]
> 7100 | O=C(NCc1cc(Cl)ccc1-c1nn[nH]n1)c1cnn(Cc2cn3cc(C4CC4)ccc3n2)c1 [Example I-117, N-(5-chloro-2-(2H-tetrazol-5-yl)benzyl)-1-((6-cyclopropylimidazo[1,2-a]pyridin-2-yl)methyl)-1H-pyrazole-4-carboxamide]
≤ 1 | COc1ccc(C#N)c(CNC(=O)c2cnn(Cc3cn4cc(C5CC5)cc(C#N)c4n3)c2)c1F [Example I-118, N-(6-cyano-2-fluoro-3-methoxybenzyl)-1-((8-cyano-6-cyclopropylimidazo[1,2-a]pyridin-2-yl)methyl)-1H-pyrazole-4-carboxamide]
1 to 10 | COc1ccc(C#N)c(CNC(=O)c2cnn(Cc3cn4cc(C5CC5)ccc4n3)c2)c1F [Example I-119, N-(6-cyano-2-fluoro-3-methoxybenzyl)-1-((6-cyclopropylimidazo[1,2-a]pyridin-2-yl)methyl)-1H-pyrazole-4-carboxamide]
10 to 100 | O=C(NCc1cc(=O)[nH]c2ccccc12)c1cnn(Cc2cn3cc(C4CC4)ccc3n2)c1 [Example I-120, 1-((6-cyclopropylimidazo[1,2-a]pyridin-2-yl)methyl)-N-((2-oxo-1,2-dihydroquinolin-4-yl)methyl)-1H-pyrazole-4-carboxamide]
100 to 2000 | O=C(NCc1cccc(Cl)c1)c1cnn(Cc2cn3cc(C4CC4)ccc3n2)c1 [Example I-121, N-(3-chlorobenzyl)-1-((6-cyclopropylimidazo[1,2-a]pyridin-2-yl)methyl)-1H-pyrazole-4-carboxamide]
1 to 10 | O=C(NCc1cc(=O)[nH]c2ccc(Br)cc12)c1cnn(Cc2cn3cc(C4CC4)ccc3n2)c1 [Example I-122, N-((6-bromo-2-oxo-1,2-dihydroquinolin-4-yl)methyl)-1-((6-cyclopropylimidazo[1,2-a]pyridin-2-yl)methyl)-1H-pyrazole-4-carboxamide]
10 to 100 | Cc1cc2[nH]cc(Cl)c2c(C)c1CNC(=O)c1cnn(Cc2cn3cc(C4CC4)ccc3n2)c1 [Example I-123, N-((3-chloro-4,6-dimethyl-1H-indol-5-yl)methyl)-1-((6-cyclopropylimidazo[1,2-a]pyridin-2-yl)methyl)-1H-pyrazole-4-carboxamide]
10 to 100 | Cc1cc2[nH]ccc2c(C)c1CNC(=O)c1cnn(Cc2cn3cc(C4CC4)ccc3n2)c1 [Example I-124, 1-((6-cyclopropylimidazo[1,2-a]pyridin-2-yl)methyl)-N-((4,6-dimethyl-1H-indol-5-yl)methyl)-1H-pyrazole-4-carboxamide]
1 to 10 | O=C(NCc1cc(Cl)ccc1-n1cnnn1)c1cnn(Cc2cn3cc(C4CC4)ccc3n2)c1 [Example I-125, N-(5-chloro-2-(1H-tetrazol-1-yl)benzyl)-1-((6-cyclopropylimidazo[1,2-a]pyridin-2-yl)methyl)-1H-pyrazole-4-carboxamide]
100 to 2000 | O=C(NCc1csc2ccc(Cl)cc12)c1cnn(Cc2cn3cc(C4CC4)ccc3n2)c1 [Example I-128, N-((5-chlorobenzo[b]thiophen-3-yl)methyl)-1-((6-cyclopropylimidazo[1,2-a]pyridin-2-yl)methyl)-1H-pyrazole-4-carboxamide]
100 to 2000 | O=C(NCCOc1cccc(Cl)c1)c1cnn(Cc2cn3cc(C4CC4)ccc3n2)c1 [Example I-129, N-(2-(3-chlorophenoxy)ethyl)-1-((6-cyclopropylimidazo[1,2-a]pyridin-2-yl)methyl)-1H-pyrazole-4-carboxamide]
2000 to 7100 | O=C(NCc1cccc2ccc(Cl)cc12)c1cnn(Cc2cn3cc(C4CC4)ccc3n2)c1 [Example I-130, N-((7-chloronaphthalen-1-yl)methyl)-1-((6-cyclopropylimidazo[1,2-a]pyridin-2-yl)methyl)-1H-pyrazole-4-carboxamide]
100 to 2000 | O=C(NCc1nccc2ccc(Cl)cc12)c1cnn(Cc2cn3cc(C4CC4)ccc3n2)c1 [Example I-131, N-((7-chloroisoquinolin-1-yl)methyl)-1-((6-cyclopropylimidazo[1,2-a]pyridin-2-yl)methyl)-1H-pyrazole-4-carboxamide]
